≈ marks a conversion by molar mass, not a printed value. Calls of active or inactive are those of the source. No cut-off for these calls is given here.
What was measured:
Hepatitis B virus [1] = assay: Inhibition of HBV Cp150 dimer assembly assessed as formation of large abnormal particles at 20 uM incubated for 2 hrs by transmission electron microscopy
Hepatitis B virus [2] = assay: Inhibition of HBV replication transfected in human HepG2.2.15 cells assessed as assessed as induction of capsid degradation in cell lysate at upto 10 uM incubated for 5 days by SDS-PAGE analysis; type: functional, organism-based; details: time 5.0 day
Hepatitis B virus [3] = assay: Inhibition of HBV replication transfected in human HepG2.2.15 cells assessed as assessed as induction of total core protein degradation in cell lysate at upto 10 uM incubated for 5 days by SDS-PAGE analysis; type: functional, organism-based; details: time 5.0 day
Hepatitis B virus [4] = assay: Inhibition of HBV replication transfected in human HepG2.2.15 cells assessed as inhibition of encapsidated DNA formation in cell lysate incubated for 5 days by SDS-PAGE analysis; type: functional, organism-based; details: dose <= 10.0 µM, time 5.0 day
[5] = Resistance index, ratio of EC50 for wild type Hepatitis B virus to EC50 for Hepatitis B virus harboring L180M/M204 V/A194T transfected in human HepG2 cells measured after 6 days by qPCR analysis; type: functional; details: time 6 day
[6] = Resistance index, ratio of EC50 for wild type Hepatitis B virus to EC50 for Hepatitis B virus harboring N236T transfected in human HepG2 cells measured after 6 days by qPCR analysis; type: functional; details: time 6 day
[7] = Resistance index, ratio of EC50 for wild type Hepatitis B virus to EC50 for Hepatitis B virus harboring A181V transfected in human HepG2 cells measured after 6 days by qPCR analysis; type: functional; details: time 6 day
[8] = Resistance index, ratio of EC50 for wild type Hepatitis B virus to EC50 for Hepatitis B virus harboring A181T transfected in human HepG2 cells measured after 6 days by qPCR analysis; type: functional; details: time 6 day
[9] = Resistance index, ratio of EC50 for wild type Hepatitis B virus to EC50 for Hepatitis B virus harboring A181V/N236T transfected in human HepG2 cells measured after 6 days by qPCR analysis; type: functional; details: time 6 day
[10] = Resistance index, ratio of EC50 for wild type Hepatitis B virus to EC50 for Hepatitis B virus harboring A181T/N236T transfected in human HepG2 cells measured after 6 days by qPCR analysis; type: functional; details: time 6 day
[11] = AUC (0 to infinity) in C57BL/6 mouse plasma at 5 mg/kg, po administered as single dose measured upto 24 hrs by LC-MS/MS analysis; type: ADME, organism-based; design: time < 24 hrs, dose 5 mg/kg, route po
[12] = Cmax in C57BL/6 mouse plasma at 5 mg/kg, po administered as single dose measured upto 24 hrs by LC-MS/MS analysis; type: ADME, organism-based; design: dose 5 mg/kg, time < 24 hrs, route po
[13] = AUC (0 to infinity) in C57BL/6 mouse plasma at 2 mg/kg, iv administered as single dose measured upto 24 hrs by LC-MS/MS analysis; type: ADME, organism-based; design: dose 2 mg/kg, time < 24 hrs, route iv
[14] = Plasma protein binding in mouse assessed as free fraction incubated for 5 hrs by LC-MS/MS analysis; type: ADME, cell-free
[15] = Cytotoxicity against human HepDE19 cells assessed as reduction in cell viability measured after 5 days by CCK-8 method; type: functional; details: HepDE19, 120 h, time 5 day
[16] = Half life in C57BL/6 mouse plasma at 2 mg/kg, iv administered as single dose measured upto 24 hrs by LC-MS/MS analysis; type: ADME, organism-based
Hepatitis B virus [17] = assay: In vivo antiviral activity against AAV encapsidated HBV infected in C57BL/6 mouse model assessed as log reduction in serum HBV DNA level at 20 mg/kg, BID measured on day 4 by quantitative real-time PCR analysis; type: functional; details: time 4 day
[18] = Clearance in C57BL/6 mouse plasma at 2 mg/kg, iv administered as single dose measured upto 24 hrs by LC-MS/MS analysis; type: ADME, organism-based
Hepatitis B virus [19] = assay: In vivo antiviral activity against AAV encapsidated HBV infected in C57BL/6 mouse model assessed as reduction in serum HBV DNA level at 20 mg/kg, BID measured on day 6 by quantitative real-time PCR analysis; type: functional, organism-based; details: time 6.0 day
[20] = Lyophilization solubility of the compound in phosphate buffer at pH 6.5 incubated for 1 hr under stirring condition and 2 hrs under shaking condition by HPLC-UV analysis; type: physicochemical
Hepatitis B virus [21] = assay: Antiviral activity against HBV infected in human HepG2.2.15 cells assessed as reduction in HBV DNA replication measured after 5 days by qPCR analysis; type: functional, organism-based; details: HepG2.2.15, 120 h
[22] = Selectivity index, ratio of CC50 for human HepDE19 cells assessed as reduction in cell viability to EC50 for HBV infected in human HepG2.2.15 cells assessed as reduction in HBV DNA replication; type: toxicity, cell-based; details: HBV-infected HepG2.2.15 cells (EC50)
[23] = Oral bioavailability in C57BL/6 mouse plasma at 5 mg/kg administered as single dose measured upto 24 hrs by LC-MS/MS analysis; type: ADME, organism-based
Hepatitis B virus [24] = assay: In vivo antiviral activity against AAV encapsidated HBV infected in C57BL/6 mouse model assessed as log reduction in serum HBV DNA level at 20 mg/kg, BID measured on day 2 by quantitative real-time PCR analysis; type: functional; details: time 2 day
[25] = Metabolic stability in human liver microsomes assessed as clearance at 1 uM preincubated for 10 mins and measured upto 30 mins in presence of NADPH generating system by LC-MS/MS analysis; type: ADME, Microsome; details: time < 40 min
[26] = Ratio of AUC (0 to infinity) in liver to plasma of C57BL/6 mouse liver at 5 mg/kg, po administered as single dose measured upto 24 hrs by LC-MS/MS analysis; type: ADME, organism-based; details: read-out: Ratio AUC
[27] = AUC (0 to infinity) in C57BL/6 mouse liver at 5 mg/kg, po administered as single dose measured upto 24 hrs by LC-MS/MS analysis; type: ADME, organism-based; design: time < 24 hrs, dose 5 mg/kg, route po
[28] = Volume of distribution at steady state in C57BL/6 mouse plasma at 2 mg/kg, iv administered as single dose measured upto 24 hrs by LC-MS/MS analysis; type: ADME, organism-based; details: read-out: Vdss
[29] = Metabolic stability in mouse liver microsomes assessed as clearance at 1 uM preincubated for 10 mins and measured upto 30 mins in presence of NADPH generating system by LC-MS/MS analysis; type: ADME, Microsome; details: time < 40 min
[30] = Ratio of AUC (0 to infinity) in liver to plasma of C57BL/6 mouse liver at 3 mg/kg, po administered as single dose measured upto 24 hrs by LC-MS/MS analysis; type: ADME, organism-based; details: read-out: Ratio AUC
[31] = AUC (0 to infinity) in C57BL/6 mouse plasma at 1 mg/kg, iv administered as single dose measured upto 24 hrs by LC-MS/MS analysis; type: ADME, organism-based; design: dose 1 mg/kg, time < 24 hrs, route iv
[32] = AUC (0 to infinity) in C57BL/6 mouse plasma at 3 mg/kg, po administered as single dose measured upto 24 hrs by LC-MS/MS analysis; type: ADME, organism-based; design: time < 24 hrs, dose 3 mg/kg, route po
[33] = Volume of distribution at steady state in C57BL/6 mouse plasma at 1 mg/kg, iv administered as single dose measured upto 24 hrs by LC-MS/MS analysis; type: ADME, organism-based; details: read-out: Vdss
[34] = Half life in C57BL/6 mouse plasma at 1 mg/kg, iv administered as single dose measured upto 24 hrs by LC-MS/MS analysis; type: ADME, organism-based
[35] = Cmax in C57BL/6 mouse plasma at 3 mg/kg, po administered as single dose measured upto 24 hrs by LC-MS/MS analysis; type: ADME, organism-based; design: time < 24 hrs, dose 3 mg/kg, route po
[36] = AUC (0 to infinity) in C57BL/6 mouse liver at 3 mg/kg, po administered as single dose measured upto 24 hrs by LC-MS/MS analysis; type: ADME, organism-based; design: dose 3 mg/kg, time < 24 hrs, route po
[37] = Oral bioavailability in C57BL/6 mouse plasma at 3 mg/kg administered as single dose measured upto 24 hrs by LC-MS/MS analysis; type: ADME, organism-based
[38] = Clearance in C57BL/6 mouse plasma at 1 mg/kg, iv administered as single dose measured upto 24 hrs by LC-MS/MS analysis; type: ADME, organism-based

In the case of `COC(=O)C1=C(CN2CC(F)(F)C[C@H]2C(=O)O)NC(c2nccs2)=N[C@H]1c1ccc(F)cc1Cl`, the Activity (Hepatitis B virus [1]) is reported as “Active”, the inhibition (Hepatitis B virus [2]) is reported as “Active” and the inhibition (Hepatitis B virus [3]) is reported as “Active”. The inhibition (Hepatitis B virus [4]) was “Dose-Dependent Effect”.
For `C[C@H](Cn1cnc2c(N)ncnc21)OCP(=O)(O)O` [TENOFOVIR ANHYDROUS], the “Ratio EC50” value [5] was 4.3, the “Ratio EC50” value [6] was 3.3 and the “Ratio EC50” value [7] was 1.5. The “Ratio EC50” value [8] was 0.9, the “Ratio EC50” value [9] was 3.8 and the “Ratio EC50” value [10] was 3.3.
With `C[C@H]1Cn2ncc(N3CCOCC3=O)c2CN1C(=O)Nc1ccc(F)c(Cl)c1` the AUC(0-inf) [11] was 4180 ng·h/mL, the Cmax [12] was 1330 ng/mL and the AUC(0-inf) [13] was 3520 ng·h/mL. It also gave a fraction unbound at 5 h [14] of 0.31, a CC50 [15] of over 100000 nM and a half-life [16] of 2 h. For the same compound, the “log(activity)” value (Hepatitis B virus [17]) was 0.5, the clearance [18] was 10 mL/min/kg and the Activity (Hepatitis B virus [19]) was “inactive”. For the same compound, the solubility at 3 h [20] was 156 µg/mL (≈ 383 µM), the EC50 (Hepatitis B virus [21]) was 27 nM and the selectivity ratio [22] was over 3700. For the same compound, the bioavailability [23] was 48%, the “log(activity)” value (Hepatitis B virus [24]) was 0.67 and the CLhep predicted at 1 µM [25] was 7.1 mL/min/kg. It also gave a Kp at 24 h [26] of 2.6, an AUC(0-inf) [27] of 10900 ng·h/mL and a Vd [28] of 1.4 L/kg. For the same compound, the CLhep predicted at 1 µM [29] was 39 mL/min/kg.
Work on `O=C(Nc1ccc(F)cc1)N1CCn2ncc(-c3ccc(F)cc3)c2C1` yielded a Kp at 24 h [30] of 18.5, an AUC(0-inf) [31] of 208 ng·h/mL and a CC50 [15] of 55000 nM. It also gave an AUC(0-inf) [32] of 276 ng·h/mL, a Vd [33] of 2.1 L/kg and a solubility at 3 h [20] of under 1 µg/mL. For the same compound, the EC50 (Hepatitis B virus [21]) was 124 nM, the selectivity ratio [22] was 443 and the half-life [34] was 0.36 h. The Cmax [35] was 407 ng/mL, the AUC(0-inf) [36] was 5110 ng·h/mL and the CLhep predicted at 1 µM [25] was 14 mL/min/kg. The bioavailability [37] was 44%, the clearance [38] was 146 mL/min/kg and the CLhep predicted at 1 µM [29] was 56 mL/min/kg.

Reference: ChEMBL document CHEMBL5370611, “Discovery of 4,5,6,7-Tetrahydropyrazolo[1.5-a]pyrizine Derivatives as Core Protein Allosteric Modulators (CpAMs) for the Inhibition of Hepatitis B Virus” (J Med Chem, 2023)
